Where a SMILES comes first, the peptide text is derived from it. [ ]: non-standard residue; d: D form. pGlu = O=C1CC[C@@H](C(=O)O)N1

What all share (assay type): in vivo, ICR strain mice
Assay [1] has as its system Escherichia coli No. 22. Description: Test 3: protective effect against bacterial infection (i.p. 8, 7, 4, 3 and 2 days before infection). As to conditions: mice observed 4 days. The protocol: (§1) Test animals: ICR strain mice, males, 4 weeks old, 10 to 20 animals per group.
(§2) Method of bacterial infection: Escherichia coli No. 22, cultured at 37° C. for 20 hours (concentration: 2.0×10^8 cfu/ml), was suspended in sterile physiological saline and the test mice were intraperitoneally inoculated with 0.5 ml of the suspension.
(3) Test 3 (protective effect against bacterial infection)
Test animals: Same as Test 1
(§3) Administration schedule: Each peptide of this invention in predetermined concentrations (aqueous solutions) was intraperitoneally administered 8, 7, 4, 3 and 2 days before infection.
(§4) Method of bacterial infection: Same as Test 1.

Assay [2] deals with Herpes simplex virus type 1 Miyama strain. Description: Test 6: protective effect against virus infection. As to conditions: 0.01 mg/kg i.p. 8, 7, 4, 3 and 2 days before i.p. HSV-1 infection; mice observed 14 days. The protocol: as §1
(6) Test 6 (protective effect against virus infection)
Test animals: Same as Test 5.
Administration schedule: Each peptide of this invention in aqueous solution was intraperitoneally administered 8, 7, 4, 3 and 2 days before infection (0.01 mg/kg).
(§5) Method of virus infection: Herpes simplex virus type 1 Miyama strain (concentration: 2×10^3 pfu/ml) was suspended in sterile physiological saline and 0.2 ml of the suspension was intraperitoneally inoculated.

Assay [3] relates to Escherichia coli No. 22. Description: Test 1: protective effect against bacterial infection (i.p. 7, 6, 3, 2 and 1 day before infection). As to conditions: mice observed 4 days. The protocol: (1) Test 1 (protective effect against bacterial infection)
as §1
(§6) Administration schedule: The peptides of this invention in predetermined concentrations (aqueous solutions) were intraperitoneally administered 7, 6, 3, 2 and 1 day before infection.
as §2

The test system of assay [4] is Escherichia coli No. 22. The assay is described as follows: Test 2: protective effect against bacterial infection (i.p. 6, 5, 4 and 1 day before infection). As to conditions: mice observed 4 days. The protocol:
as §1, §2
(2) Test 2 (protective effect against bacterial infection)
(§7) Test animals: Same as Test 1.
Administration schedule: Each peptide of this invention in predetermined concentrations (aqueous solutions) was intraperitoneally administered 6, 5, 4 and 1 day before infection.
as §4

Assay [5] relates to Escherichia coli No. 22. Description: Test 5: protective effect against bacterial infection (i.p. 7, 6, 3, 2 and 1 day before infection). As to conditions: mice observed 4 days. The protocol: (5) Test 5 (protective effect against bacterial infection)
as §1, §6, §2

Assay [6] concerns Herpes simplex virus type 1 Miyama strain. Description: Test 4: protective effect against virus infection. As to conditions: mice observed 14 days.
Description: as §1
(4) Test 4 (protective effect against virus infection)
as §7, §3, §5

Where [7] appears, read: 0.01 mg/kg i.p. 8, 7, 4, 3 and 2 days before i.p. E. coli infection.
[8] abbreviates: 0.1 mg/kg i.p. 8, 7, 4, 3 and 2 days before i.p. E. coli infection.
The mark [9] stands for this setting: 1.0 mg/kg i.p. 8, 7, 4, 3 and 2 days before i.p. E. coli infection.
The mark [10] stands for this setting: 0.01 mg/kg i.p. 7, 6, 3, 2 and 1 day before i.p. E. coli infection.
Setting [11] is: 0.1 mg/kg i.p. 7, 6, 3, 2 and 1 day before i.p. E. coli infection.
The mark [12] stands for this setting: 1.0 mg/kg i.p. 7, 6, 3, 2 and 1 day before i.p. E. coli infection.
[13] abbreviates: 1 mg/kg i.p. 6, 5, 4 and 1 day before i.p. E. coli infection.

In the case of “H-KETIEQEKQ-OH [Example 12-(2), H-Lys-Glu-Thr-Ile-Glu-Gln-Glu-Lys-Gln-OH]”, the “Survival rate (%)” value in assay [1] (setting [7]) is 70%; in assay [1] (setting [8]) it was 50%; in assay [1] (setting [9]) it was 50%.

As for “H-EQEKQ-OH [Example 11-(2), H-Glu-Gln-Glu-Lys-Gln-OH]”, the “Survival rate (%)” value in assay [1] (setting [7]) stood at 70%; in assay [1] (setting [8]), 50%; in assay [1] (setting [9]), 70%.

For “H-NVKAKIQDKEG-OH [Example 8-(2), H-Asn-Val-Lys-Ala-Lys-Ile-Gln-Asp-Lys-Glu-Gly-OH]”, the “Survival rate (%)” value in assay [1] (setting [7]) was determined as 80%; in assay [1] (setting [8]), 60%; in assay [1] (setting [9]) it was 90%.

On to `C[C@H](NC(=O)[C@H](CCCCN)NC(=O)[C@@H]1CCC(=O)N1)C(=O)N[C@@H](CCCCN)C(=O)N[C@@H](CCCCN)C(=O)N[C@@H](CCC(N)=O)C(=O)NCC(=O)NCC(=O)N[C@@H](CO)C(=O)N[C@@H](CC(N)=O)C(=O)O` [Example 16-(4), pGlu-Lys-Ala-Lys-Lys-Gln-Gly-Gly-Ser-Asn-OH] ([pGlu]KAKKQGGSN-OH), for which, in assay [2], the “Survival rate (%)” value was 85%.

“H-TKDLKEKKEVVEE-OH [Example 7-(2), H-Thr-Lys-Asp-Leu-Lys-Glu-Lys-Lys-Glu-Val-Val-Glu-Glu-OH]”: the “Survival rate (%)” value amounted to 50% in assay [3] (setting [10]), 70% in assay [3] (setting [11]) and 40% in assay [3] (setting [12]).

“H-EKLKSELVAN-OH [Example 4-(2), H-Glu-Lys-Leu-Lys-Ser-Glu-Leu-Val-Ala-Asn-OH]”: the “Survival rate (%)” value in assay [4] (setting [13]) was found to be 50%.

Turning to “H-KSKLKKTETQE-OH [Example 9-(2), H-Lys-Ser-Lys-Leu-Lys-Lys-Thr-Glu-Thr-Gln-Glu-OH]”, the “Survival rate (%)” value in assay [1] (setting [7]), in assay [1] (setting [8]) and in assay [1] (setting [9]) was 70% throughout.

Regarding “H-TKEKLKSELVAN-OH [Example 5-(2), H-Thr-Lys-Glu-Lys-Leu-Lys-Ser-Glu-Leu-Val-Ala-Asn-OH]”, in assay [4] (setting [13]), the “Survival rate (%)” value came to 50%.

With “H-KEKKE-OH [Example 14-(2), H-Lys-Glu-Lys-Lys-Glu-OH]”, the “Survival rate (%)” value in assay [1] (setting [7]) amounted to 50%; in assay [1] (setting [8]), 50%; in assay [1] (setting [9]) it was 70%.

As to “pGlu-Lys-Ala-Lys-Ser-Gln-Gly-Gly-Ser-Asn-OH ([pGlu]KAKSQGGSN-OH; SMILES C[C@H](NC(=O)[C@H](CCCCN)NC(=O)[C@@H]1CCC(=O)N1)C(=O)N[C@@H](CCCCN)C(=O)N[C@@H](CO)C(=O)N[C@@H](CCC(N)=O)C(=O)NCC(=O)NCC(=O)N[C@@H](CO)C(=O)N[C@@H](CC(N)=O)C(=O)O) [Example 18-(2)]”, the “Survival rate (%)” value in assay [5] (setting [10]) is 60%; in assay [5] (setting [11]) it was 70%; in assay [5] (setting [12]) it was 80%.

Take “H-KFDKSKLKKTETQE-OH [Example 10-(2), H-Lys-Phe-Asp-Lys-Ser-Lys-Leu-Lys-Lys-Thr-Glu-Thr-Gln-Glu-OH]”: the “Survival rate (%)” value in assay [1] (setting [7]) was 50%; in assay [1] (setting [8]), 60%; in assay [1] (setting [9]) it was 70%.

Regarding “H-SKLKSNSTHQ-OH [Example 1-(2), H-Ser-Lys-Leu-Lys-Ser-Asn-Ser-Thr-His-Gln-OH]”, the “Survival rate (%)” value was 80% in assay [6] (0.01 mg/kg i.p. 8, 7, 4, 3 and 2 days before i.p. HSV-1 infection); 40% in assay [6] (0.1 mg/kg i.p. 8, 7, 4, 3 and 2 days before i.p. HSV-1 infection); 60% in assay [6] (1 mg/kg i.p. 8, 7, 4, 3 and 2 days before i.p. HSV-1 infection); 40% in assay [4] (0.1 mg/kg i.p. 6, 5, 4 and 1 day before i.p. E. coli infection); 40% in assay [4] (setting [13]).

In the case of “H-KLKSE-OH [Example 15-(2), H-Lys-Leu-Lys-Ser-Glu-OH]”, the figures for the “Survival rate (%)” value in assay [1] (setting [7]), in assay [1] (setting [8]) and in assay [1] (setting [9]) were 80%, 100% and 80%, respectively.

Consider “H-DLKEKKEVVEE-OH [Example 6-(2), H-Asp-Leu-Lys-Glu-Lys-Lys-Glu-Val-Val-Glu-Glu-OH]”, for which the “Survival rate (%)” value is reported as 70% in assay [3] (setting [10]), 40% in assay [3] (setting [11]) and 60% in assay [3] (setting [12]).

With `C[C@H](NC(=O)[C@@H]1CCC(=O)N1)C(=O)N[C@@H](CCCCN)C(=O)N[C@@H](CCCCN)C(=O)N[C@@H](CCC(N)=O)C(=O)NCC(=O)NCC(=O)N[C@@H](CO)C(=O)N[C@@H](CC(N)=O)C(=O)O` [Example 17-(2), pGlu-Ala-Lys-Lys-Gln-Gly-Gly-Ser-Asn-OH] ([pGlu]AKKQGGSN-OH), the “Survival rate (%)” value in assay [2] is listed as 90%.
